Calls of active or inactive are those of the source. No rule for the calls is given here.
The molecules below were run against Chaperone protein DnaK (Escherichia coli (strain K12)) (UniProt P0A6Y8) (assay: E. coli DnaK SBD ligand binding – biophysical, NMR, chaperone (AID 1033)). Conditions: Purified DnaK SBD.
Sequence of Chaperone protein DnaK (Escherichia coli (strain K12)) (P0A6Y8 whole entry, looked up): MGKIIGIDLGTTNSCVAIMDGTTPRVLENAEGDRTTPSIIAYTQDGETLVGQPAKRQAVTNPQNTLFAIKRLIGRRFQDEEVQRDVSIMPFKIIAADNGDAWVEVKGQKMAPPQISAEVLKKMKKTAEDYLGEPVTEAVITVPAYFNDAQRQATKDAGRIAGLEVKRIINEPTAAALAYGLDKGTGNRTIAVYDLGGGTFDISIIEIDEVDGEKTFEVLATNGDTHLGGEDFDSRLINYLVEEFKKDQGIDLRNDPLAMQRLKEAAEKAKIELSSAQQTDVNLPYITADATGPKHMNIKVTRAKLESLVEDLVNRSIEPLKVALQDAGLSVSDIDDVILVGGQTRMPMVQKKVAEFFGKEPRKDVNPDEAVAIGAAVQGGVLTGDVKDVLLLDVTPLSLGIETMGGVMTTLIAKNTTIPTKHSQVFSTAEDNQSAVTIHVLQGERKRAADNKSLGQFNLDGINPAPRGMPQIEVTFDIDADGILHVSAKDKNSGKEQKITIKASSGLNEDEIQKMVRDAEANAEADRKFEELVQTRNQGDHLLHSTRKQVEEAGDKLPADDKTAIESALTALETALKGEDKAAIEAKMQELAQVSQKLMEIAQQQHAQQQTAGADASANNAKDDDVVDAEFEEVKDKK

| SMILES | Kd |
| --- | --- |
| NC(C(=O)O)C(O)c1ccccc1 (stereo not drawn) | > 4 mM (inactive) |
| O=c1ccc2c([nH]1)CCCC2 | > 4 mM (inactive) |
| CC(=O)c1c(O)cc(C)n(Cc2ccccc2)c1=O | > 4 mM (inactive) |
| S=c1[nH]nc(-c2cccnc2)n1Cc1ccccc1 | > 4 mM (inactive) |
| CC(C)(O)[C@@H]1Cc2cc3ccc(=O)oc3cc2O1 | > 4 mM (inactive) |
| COC1=CC(=O)C=C(OC)C1=O | > 4 mM (inactive) |
| CC1=C(/C=C/C(C)=C/C=C/C(C)=C/CO)C(C)(C)CCC1 | > 4 mM (inactive) |
| COCC(=O)Nc1cc2c3c(c1)CCN3C(=O)CC2 | > 4 mM (inactive) |
| O=c1[nH]c(N2CCOCC2)nc2ccccc12 | > 4 mM (inactive) |
| O=C(Nc1ccon1)c1cccc(Cl)c1 | > 4 mM (inactive) |
| COc1ccc2c(c1)CCCN2C(N)=O | > 4 mM (inactive) |
| CC(C)CCCC1(C)C=Cc2c(O)c3c(c(CCC(C)C)c2O1)OC12C(CC4CC1C(C)(C)OC2(CCC(C)C(=O)O)C4O)C3=O (stereo not drawn) | > 4 mM (inactive) |
| CCCn1cnc2sc(C(N)=O)c(C)c2c1=O | > 4 mM (inactive) |
| CCNC(CC(=O)Nc1cccc([N+](=O)[O-])c1)C(=O)O (stereo not drawn) | > 4 mM (inactive) |
| Cc1cc(C(=O)NCc2cccnc2)cs1 | > 4 mM (inactive) |
| NS(=O)(=O)c1ccc(NC(=O)c2ccccc2F)cc1 | > 4 mM (inactive) |
| COc1ncccc1N | > 4 mM (inactive) |
| Cc1cc(C)n(-c2ccc(Cl)nn2)n1 | > 4 mM (inactive) |
| NCc1cccc2c1OCCO2 | > 4 mM (inactive) |
| Cc1onc(-c2ccc(F)cc2)c1C(=O)O | > 4 mM (inactive) |
| O=C(O)c1ccc(-n2cccc2)cc1 | > 4 mM (inactive) |
| Cn1ccc(NC(=S)NC2CCCC2)n1 | > 4 mM (inactive) |
| CCOc1ccccc1C(=O)NC1=NCCS1 | > 4 mM (inactive) |
| O=C(O)c1cc2ccccc2cn1 | > 4 mM (inactive) |

| SMILES | Kd |
| --- | --- |
| O=[N+]([O-])c1cccc2c1nnn2C(CO)OCCO (stereo not drawn) | > 4 mM (inactive) |
| Cn1ncc(C(=O)O)c1-c1ccccc1 | > 4 mM (inactive) |
| Cc1nccn1CCC(=O)O | > 4 mM (inactive) |
| CSc1n[nH]c(NCc2ccccc2)n1 | > 4 mM (inactive) |
| O=c1c2ccccc2nc(-c2ccco2)n1-c1nccs1 | > 4 mM (inactive) |
| NN1C(=O)CSC1=Nc1ccccc1 | > 4 mM (inactive) |
| COc1cc(OC)c2c(OC)c(-c3ccc4c(c3)OCO4)c(=O)oc2c1 | > 4 mM (inactive) |
| O=c1cc(-c2ccccc2)oc2c(O)c(O)ccc12 | > 4 mM (inactive) |
| O=C1NC(=O)C(Cc2ccccc2)C(=O)N1 | > 4 mM (inactive) |
| COc1cc(/C=C/C(=O)/C=C(O)/C=C/c2ccc(O)c(OC)c2)ccc1O | > 4 mM (inactive) |
| CC1(C)CC(=O)c2sc(N)nc2C1 | > 4 mM (inactive) |
| COCc1cc(C)nc2sc(C(=O)OC)c(N)c12 | > 4 mM (inactive) |
| Nc1cc(C(=O)O)ccc1N1CCCCCC1 | > 4 mM (inactive) |
| S=c1ccc(N2CCCCC2)n[nH]1 | > 4 mM (inactive) |
| O=C(O)c1cccc(CSc2ncccn2)c1 | > 4 mM (inactive) |
| CCOc1ccc2ccccc2c1C(=O)N1CCOCC1 | > 4 mM (inactive) |
| Cc1nc2sc3c(c2c(=N)n1N)CC(C)(C)OC3 | > 4 mM (inactive) |
| Cc1nnc(SCc2ccon2)n1-c1ccccc1 | > 4 mM (inactive) |
| O=C(O)c1cccnc1N1CCCC1 | > 4 mM (inactive) |
| C[C@@H]1OC(O[C@H]2C(O[C@H]3CC[C@@]4(C)C(CC[C@]5(C)C4CC=C4C6CC(C)(C)CC[C@]6(C(=O)O)CC[C@]45C)[C@]3(C)CO)OC[C@H](O)[C@@H]2O)[C@H](O)[C@H](O)[C@H]1O (stereo partly drawn) | > 4 mM (inactive) |
| CC1=NNC(=O)C1CCc1ccncc1 (stereo not drawn) | > 4 mM (inactive) |
| Cn1nnc2cc(CO)ccc21 | > 4 mM (inactive) |
| NC(=O)CN1CCCCCC1=O | > 4 mM (inactive) |
| OCc1cccc2nonc12 | > 4 mM (inactive) |

| SMILES | Kd |
| --- | --- |
| O=C(CC1SC(=O)NC1=O)Nc1ccccc1 (stereo not drawn) | > 4 mM (inactive) |
| CC(=O)c1cccc(NS(=O)(=O)N(C)C)c1 | > 4 mM (inactive) |
| Cc1nnc(Nc2ccc(S(N)(=O)=O)cc2)[nH]c1=O | > 4 mM (inactive) |
| CC(=O)c1cccc(N=C2NC(=O)CS2)c1 | > 4 mM (inactive) |
| C[C@@H]1O[C@@H](O[C@H]2[C@H](Oc3cc(O)c4c(=O)cc(-c5ccc(O)cc5)oc4c3)O[C@H](CO)[C@@H](O)[C@@H]2O)[C@H](O)[C@H](O)[C@H]1O | > 4 mM (inactive) |
| COCCn1c(SC)nc2c1c(=O)[nH]c(=O)n2C | > 4 mM (inactive) |
| CC(C)=CC(=O)Nc1ccc2c(c1)OCO2 | > 4 mM (inactive) |
| Oc1cccc(N2CCOCC2)c1 | > 4 mM (inactive) |
| OCc1ccc(-c2ccccn2)s1 | > 4 mM (inactive) |
| O=C(O)CSCC(=O)Nc1cccc(O)c1 | > 4 mM (inactive) |
| O=C1CNC(=O)N1Cc1ccc(F)cc1 | > 4 mM (inactive) |
| CCC1(CC)C(=O)N=C(N)NC1=O | > 4 mM (inactive) |
| OCc1ccc2nsnc2c1 | > 4 mM (inactive) |
| CS(=O)(=O)Nc1ccc(C(=O)N2CCCCC2)cc1 | > 4 mM (inactive) |
| CC12CC[C@H](CC1=O)C2(C)C | > 4 mM (inactive) |
| O=CN1CCN(C2CC(=O)N(c3ccccc3)C2=O)CC1 (stereo not drawn) | > 4 mM (inactive) |
| O=C1CC(=O)N(c2ccccc2)c2ccccc21 | > 4 mM (inactive) |
| c1cncc(Cn2cccc2)c1 | > 4 mM (inactive) |
| CCOC(=O)c1c(-c2ccncc2)csc1N | > 4 mM (inactive) |
| CC(=O)Nc1ccc(NC2SC(=O)NC2=O)cc1 (stereo not drawn) | > 4 mM (inactive) |
| CC(=O)C1CCC2C3CCC4C[C@H](O)CCC4(C)C3C[C@H](O)C12C (stereo partly drawn) | > 4 mM (inactive) |
| COC(=O)/C(=C1\OC(=O)C(c2ccccc2)C1=O)c1ccccc1 (stereo not drawn) | > 4 mM (inactive) |
| O=C1CN(c2ccccc2)CC(=O)N1 | > 4 mM (inactive) |
| Clc1ccccc1-c1nc(-c2cccnc2)no1 | > 4 mM (inactive) |

| SMILES | Kd |
| --- | --- |
| Cc1ccc(=O)[nH]c1 | > 4 mM (inactive) |
| O=S(=O)(Nc1cccc2cn[nH]c12)c1ccc(F)cc1 | > 4 mM (inactive) |
| COc1cc(-c2coc3cc(O[C@@H]4O[C@H](CO)[C@@H](O)[C@H](O)[C@H]4O)c(OC)c(O)c3c2=O)cc(O)c1OC | > 4 mM (inactive) |
| Nc1cccc2nonc12 | > 4 mM (inactive) |
| O=C(Nc1nncs1)Oc1ccccc1 | > 4 mM (inactive) |
| Cc1nc2nc(COc3ccccc3)nn2c(C)c1Cl | > 4 mM (inactive) |
| COc1cc2c3cc1Oc1c(OC)c(OC)cc4c1[C@@H](Cc1cccc(c1)Oc1ccc(c(O)c1)C[C@@H]3N(C)CC2)N(C)CC4 | > 4 mM (inactive) |
| O=c1cnnc(SCCc2ccccc2)[nH]1 | > 4 mM (inactive) |
| COc1c(C(C)C)oc2cc3oc(=O)ccc3cc12 | > 4 mM (inactive) |
| c1ccc(Cn2c(Nn3cnnc3)nc3ccccc32)cc1 | > 4 mM (inactive) |
| COc1ccc(-c2nnsc2N)cc1 | > 4 mM (inactive) |
| COc1ccc(Cc2nccc3cc(OC)c(OC)cc23)cc1OC | > 4 mM (inactive) |
| COc1cc(OC)c(OC)cc1C=O | > 4 mM (inactive) |
| CC(=O)c1cc(C)ccc1O | > 4 mM (inactive) |
| COc1ccccc1-c1cn[nH]c(=S)n1 | > 4 mM (inactive) |
| Cc1cccc(N2C(=O)CC(=O)NC2=O)c1 | > 4 mM (inactive) |
| Cc1n[nH]c(=S)n(/N=C/c2ccccc2)c1=O | > 4 mM (inactive) |
| O=C(O)c1ccc(Oc2ccccc2)nc1 | > 4 mM (inactive) |
| CC(=O)OCc1cc(=O)n(C)c(=O)n1C | > 4 mM (inactive) |
| O=C(NCc1ccccn1)c1ccc(Cl)cc1Cl | > 4 mM (inactive) |
| COc1cc2c(cc1OC)C1Cc3ccc(OC)c(OC)c3CN1CC2 (stereo not drawn) | > 4 mM (inactive) |
| CN(C)S(=O)(=O)Nc1ccc(Br)cc1F | > 4 mM (inactive) |
| CC1=NN(c2ccc(C)cc2)C(=O)C1 | > 4 mM (inactive) |
| O=c1[nH]c(=S)[nH]c2c1CCC2 | > 4 mM (inactive) |

| SMILES | Kd |
| --- | --- |
| CC(=O)Nc1nnc(-c2ccccc2)o1 | > 4 mM (inactive) |
| NC(=O)CSCc1ccc(Br)cc1 | > 4 mM (inactive) |
| CC1(C)C(=O)C=C[C@@]2(C)C1CC(=O)[C@]1(C)C2CC[C@@]2(C)[C@H](c3ccoc3)OC(=O)[C@H]3O[C@]321 (stereo partly drawn) | > 4 mM (inactive) |
| Cc1occc1C(=O)Nc1nnc(C(F)(F)F)s1 | > 4 mM (inactive) |
| CC(=O)O[C@H]1C[C@@H](OC(C)=O)C(C)(C)C2C[C@@H](O)[C@]3(C)C(CC[C@@]4(C)[C@H](c5ccoc5)OC(=O)[C@H]5O[C@]543)[C@]21C (stereo partly drawn) | > 4 mM (inactive) |
| Cn1cnc2ccc([N+](=O)[O-])cc2c1=O | > 4 mM (inactive) |
| COc1ccc(-c2cc(=O)c3ccccc3o2)cc1OC | > 4 mM (inactive) |
| CC1(C)Cc2nc(N3CCOCC3)c(C#N)cc2CO1 | > 4 mM (inactive) |
| CC(C)=CCOc1cc2oc(=O)ccc2cc1O | > 4 mM (inactive) |
| c1ccc(CCc2nc(-c3ccccn3)no2)cc1 | > 4 mM (inactive) |
| NC(=O)C1CCN(C(=O)c2ccco2)CC1 | > 4 mM (inactive) |
| O=c1c(O)cccc2cc(O)c(O)c(O)c12 | > 4 mM (inactive) |
| NCCC(=O)N[C@@H](Cc1cnc[nH]1)C(=O)O | > 4 mM (inactive) |
| OCc1ccc2ncccc2c1 | > 4 mM (inactive) |
| Cc1nn2c(-c3ccncc3)nnc2c2ccccc12 | > 4 mM (inactive) |
| COc1ccc2c(c1O)-c1c(OC)c(OC)cc3c1[C@H](C2)N(C)CC3 | > 4 mM (inactive) |
| Oc1ccccc1N1CCCC1 | > 4 mM (inactive) |
| CN1C(=O)c2ccc(C(=O)NC3CCCCC3)cc2C1=O | > 4 mM (inactive) |
| COc1cccc(/C=N/N=C2/NC(=O)CS2)c1 | > 4 mM (inactive) |
| CC(C)c1c(O)ccc2c1CCC1[C@@](C)(CO)CCC[C@]21C (stereo partly drawn) | > 4 mM (inactive) |
| O=S1(=O)CCC(Nc2ccccc2)C1 (stereo not drawn) | > 4 mM (inactive) |
| O=C(c1ccccc1)c1ccc(N2CCNCC2)cc1 | > 4 mM (inactive) |

— PubChem BioAssay AID1033 (Sanford-Burnham Center for Chemical Genomics, 2008)
